{
  "source": "paper PMC4558462",
  "about": "“A new small molecule inhibitor of soluble guanylate cyclase” (Bioorganic & Medicinal Chemistry, 2015)",
  "key": {"sGCcat": {"molecular_target": "T1, sGCcat (Homo sapiens, UniProt Q02108+Q02153)", "T1 construct": "a smaller construct of the catalytic domain (sGCcat)", "T1 sequence (Q02108 481-608 limits assumed)": "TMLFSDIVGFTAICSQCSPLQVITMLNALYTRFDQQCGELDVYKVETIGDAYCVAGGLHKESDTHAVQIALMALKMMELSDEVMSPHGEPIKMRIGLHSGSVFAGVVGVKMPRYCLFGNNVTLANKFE", "T1 sequence (Q02153 421-554 limits assumed)": "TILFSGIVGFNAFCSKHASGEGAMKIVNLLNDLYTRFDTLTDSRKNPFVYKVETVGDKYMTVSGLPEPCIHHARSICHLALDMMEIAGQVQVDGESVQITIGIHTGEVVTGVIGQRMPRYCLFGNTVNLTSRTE", "test": "SPR binding to catalytic domain of sGC", "description": "We have previously described a surface plasmon resonance-based assay for the detection of binding of small molecules to full-length sGC and a smaller construct of the catalytic domain (sGCcat).[24] This assay was used to measure the binding of the compounds to sGCcat.[24] […] The position of the hydroxyl group can be changed whilst retaining binding strength and activity.\nSurface plasmon resonance (SPR) experiments were performed with a Biacore T200 instrument at 25 °C. Data processing and analysis were performed using BIAevaluation software and Scrubber2. All sensorgrams were double referenced by subtracting the response in a reference flowcell and a blank sample. Materials and methods used were the same as previously published.[24]"}, "[1]": {"test_system": "NMDA-stimulated cGMP production in cerebellar slices", "test": "NMDA-stimulated cGMP production in rat cerebellar slices", "type": "cell-based", "conditions": "100 μM", "description": "The ability of compound 10 to inhibit sGC in tissues was explored using NMDA-stimulated cGMP production in cerebellar slices, which depends on NO formation. Rat cerebellar slices were pre-incubated with compound 10 then treated with NMDA.\nBrain slices methods were conducted as described in detail.[37,38] Briefly, 0.4 mm thick sagittal cerebellar slices from 10-day-old animals were cut using a McIlwain tissue chopper. Experiments were carried out in the presence of the broad spectrum phosphodiesterase inhibitor IBMX (1 mM; 10 min preincubation) and, when appropriate, antagonists were added 10 min prior to IBMX. Following treatment, brain slices were inactivated in boiling Tris–HCl buffer (50 mM, pH 7.5) containing EDTA (4 mM) and homogenised by sonication after which aliquots were removed for measurement of protein (bicinchoninic acid method) and cGMP (radioimmunoassay)."}},
  "note": "“Also recorded” adds a separate entry of the source. Read-outs that look alike come from different tables or passages of the source.",
  "data": [
    {"molecule": "O=[N+]([O-])c1ccc2nc(Nc3ccc(O)cc3)c(Nc3ccc(O)cc3)nc2c1", "note": "[Compound 10, 4,4′-((6-Nitroquinoxaline-2,3-diyl)bis(azanediyl))diphenol]", "values": [
      {"measurement": "Kd", "setting": "sGCcat", "value": "11.4 ± 1.8", "unit": "µM"},
      {"measurement": "sGCcat (SPR) binding norm. resp. (RU)", "setting": "sGCcat; Biacore T200, 25 °C", "value": "14.4 ± 1.7", "unit": "RU"},
      {"measurement": "binding to sGCcat (in words)", "setting": "sGCcat; discussion of Table 1", "value": "higher binding"},
      {"measurement": "Kd", "setting": "sGCcat; listed as D12", "value": 11, "unit": "µM"},
      {"measurement": "inhibition of NMDA-induced cGMP generation", "setting": "[1]", "value": "almost completely; also recorded: inhibits cGMP production"}
    ]}
  ]
}
